From patent US12667580B2, “Retinoic acid precursor and anticancer drug composition comprising same” (INDUSTRIAL COOPERATION FOUNDATION JEONBUK NATIONAL …, priority 2021, dated 2026)

Experiments:
[1] = system: HMGB1 released from A549 cells; assay: HMGB-1 release; type: cell-based
Protocol: Next, since it is known that HMGB-1 is a nuclear protein that binds to DNA and is triggered by an apoptosis inducer and that in the late stage of apoptosis, cells are destroyed and HMGB-1 is released into the tumor microenvironment to induce dendritic cell maturation and antigen presentation, an experiment was performed to confirm the effect of tRABA nanoparticles on HMGB-1 release.

tumor model mice = assay: Tumor growth inhibition in tumor model mice; type: in vivo, mouse; settings: i.v. on Days 1, 4, 7, 10, 13; RA 3 mg/kg, HBA 1.5 mg/kg, tRABA 5 mg/kg
Protocol: Next, the anticancer effect was evaluated by administering a therapeutic drug in the tumor model mice when the tumor size reached 50 mm^3. A therapeutic drug was intravenously administered on Days 1, 4, 7, 10, and 13 to the tumor model mice.

GSH in A549 cells = assay: Intracellular GSH levels; type: cell-based; set-up: dose or concentration left out as unconfirmed
Protocol: Therefore, an experiment was conducted to measure intracellular GSH levels in A549 cells treated with tRABA.

[2] = system: calreticulin (CRT) in A549 cells; assay: CRT level by flow cytometry; type: cell-based
Protocol: Next, since immunogenic apoptosis enhances immunogenicity and anticancer effects by releasing damage-associated molecular pattern (DAMP) substances during the cell dying process, an experiment was performed to confirm whether tRABA nanoparticles induce immunogenic cell death to improve immunogenicity. First, the expression levels of DAMPs such as calreticulin (CRT) and high mobility group box 1 (HMGB1) were confirmed as endoplasmic reticulum (ER) stress markers.

A549 cells = assay: MTT cytotoxicity, A549; type: cell-based; settings: 24 hours, RA (210 mM), HBA (220 mM)
Protocol: Next, to evaluate the cytotoxicity of tRABA, a 3-(4,5-dimethylthiazol-2-yl)-2,5-diphenyltetrazolium bromide (MTT)) analysis was performed. The cell survival rate was measured 24 hours after A549 cells were treated with RA, HBA, and tRABA, and the results are shown in FIG. 8C.

[3] = Self-assembly of nanoparticles in water, particle size and SEM; type: physicochemical
Protocol: RABA dissolved in tetrahydrofuran (THF) was added to water while stirring. During dilution in water, strong light scattering occurred due to the Tyndall phenomenon. […] The mean hydrodynamic diameter was measured to be ˜120 nm.
It was confirmed that the nanoparticles existed in a spherical colloidal state. In addition, an experiment was performed to confirm self-assembly of Compound 2, which is produced during the preparation process of RA and RABA.

[4] = Reactivity of RABA in the presence of H2O2 (1H NMR after incubation); type: physicochemical
Protocol: To evaluate the reactivity of the prepared RABA in the presence of H2O2, ^1H NMR of the RABA was taken after incubation in a 5 mM H2O2 solution.
The peaks at 7.3 and 7.8 ppm corresponding to aromatic protons disappeared, and new peaks at 6.8 and 7.1 ppm appeared. The peaks corresponding to benzylic proton were shifted from 5.1 ppm to 5.0 ppm. On the other hand, there was no peak shift in the RABA incubated in water without H2O2.

[5] = system: SW620 multicellular spheroids; assay: Tumor penetration in multicellular spheroids; type: cell-based; settings: 6 hours
Description: Next, SW620 multicellular spheroids were used to evaluate the tumor penetration of Nile Red-loaded tRABA nanoparticles. […] This means that tRABA penetrated much deeper into the spheroids than RABA. From this, it could be confirmed that tRABA has excellent tumor penetration.

hydroxybenzyl alcohol [HBA]
level of HMGB-1 [1]: did not affect the level of HMGB-1 | tumor growth inhibition (tumor model mice): negligible inhibitory effect on tumor growth | intracellular GSH levels (GSH in A549 cells): no effect on the GSH levels | level of CRT [2]: almost no effect

CC1=C(/C=C/C(C)=C/C=C/C(C)=C/C(=O)O)C(C)(C)CCC1 [RA, Retinoic acid]
cell survival rate / cytotoxicity (MTT) (A549 cells): the cell survival rate decreased

CC1=C(/C=C/C(C)=C/C=C/C(C)=C/C(=O)OCc2ccc(B(O)O)cc2)C(C)(C)CCC1 [RABA]
self-assembly into nanoparticles ([3]; THF solution added to water, SEM): the nanoparticles were being formed well | mean hydrodynamic diameter ([3]; nanoparticles in water): ~120 nm | stability in water (1H NMR peak shift) ([4]; incubated in water without H2O2): no peak shift | reactivity in the presence of H2O2 (1H NMR peak shift) ([4]; incubation in a 5 mM H2O2 solution): a shift of the peak due to the release of HBA was observed | spheroid penetration (fluorescence) [5]: weak fluorescence
